The values below come from patent US12583818B2 (DAEGU-GYEONGBUK MEDICAL INNOVATION FOUNDATION, priority 2020, dated 2026).

Read-outs that look alike come from different tables or passages of the source.

One test deals with T1, Pin1 (Homo sapiens, UniProt Q13526).
T1 construct: purchased Anaspec
Kind of test: Evaluation of Pin1 enzyme inhibitory activity (Sensolyte Green Pin1 assay kit). It counts as biochemical. As for the experimental part: In order to evaluate the Pin1 enzyme inhibitory activity of the compound represented by formula 1 according to the present invention, the following experiment was performed, and the results are shown in Table 2 below.
The enzyme activity of Pin1 protein was measured using a sensolyte Green Pin1 assay kit of Anaspec. The substrate was diluted in a buffer at a ratio of 1:100 to prepare a concentration of 1 μM, and the protein was diluted in a buffer at a ratio of 1:20 to prepare a concentration of 50 μg/ml. In addition, a developing solution was prepared by diluting thereof in a buffer at a ratio of 1:100.
The compound prepared in each example was diluted with DMSO and prepared at a concentration of 100 μM, 10 μM, 1 μM or 0.1 μM using a buffer. After sequentially adding 10 μl of the compound prepared in each Example diluted to four concentrations according to the above method, 10 μl of Pin1 protein, and 30 μl of the developing solution to each well of a black 96-well plate, […]. Finally, 50 μl of the substrate was added to each well of the plate, and the enzyme reaction was carried out after shaking the plate for 10 seconds.
Then, the plate was incubated for 2 hours at room temperature in an environment without light, and the fluorescence values at 490 nm/520 nm wavelength were measured using a device of Synergy Neo […]. The results are shown in Table 2 below by dividing the grades of A to D for each concentration (μM) at which the Pin1 enzyme activity is inhibited.

Test [1] relates to A2780-SP cells (ovarian cancer stem cells). The test can be described thus: Sphere cell viability of A2780-SP cells (Cell-titer Glo). Particulars: 192 h; sphere cell viability, culture for 8 days; read-out: A2780-SP. It counts as cell-based. How it is done:
In order to confirm the inhibitory effect of the compound represented by formula 1 according to the present invention on the growth of MCF7, MCF7-SP, A2780 or A2780-SP cells, the following experiment was performed, and the results are shown in Tables 4 and 5 below.
On the other hand, A2780-SP cells (ovarian cancer stem cells) were plated in an Ultra-Low Attachment round bottom 96-well plate (corning) at the density of 1,500 viable cells per well, and cultured in cancer stem cell medium. The cancer stem cell medium is composed of the neurobasal medium supplemented with 20 ng/ml of bFGF, 10 ng/ml of EGF, […] of amphotericin B, HEPES, Glutamax and B27.
On the next day of culture, the cells were treated with the compound of Examples 57, and 69 to 144, followed by culture for 8 days. The medium containing the compound was added thereto once again on the 4th day. Sphere cell viability was evaluated by Cell-titer Glo (Promega, WC, USA), and luciferase activity was detected using a Tecan plate reader (Biocompare, USA).

The mark [2] stands for this setting: Table 2, read-out: concentration at which Pin1 inhibitory activity was exhibited.
Where [3] appears, read: concentration at which the Pin1 enzyme activity is inhibited, 2 hours at room temperature, fluorescence 490 nm/520 nm, read-out: Pin 1 inhibition.

T1 sequence (Q13526 whole entry): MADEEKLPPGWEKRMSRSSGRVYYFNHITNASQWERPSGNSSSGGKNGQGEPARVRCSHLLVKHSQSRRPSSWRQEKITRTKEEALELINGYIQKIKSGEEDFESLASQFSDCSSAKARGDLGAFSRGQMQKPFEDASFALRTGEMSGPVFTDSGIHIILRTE

In the case of `O=S(=O)(NCCCc1c[nH]c2ccc(Cl)cc12)c1ccc(OCCCN2CCCCCC2)cc1` [Example 101, 4-(3-(azepan-1-yl)propoxy)-N-(3-(5-chloro-1H-indol-3-yl)propyl)benzenesulfonamide], the IC50 at Pin1 (setting [2]) and at Pin1 (setting [3]) was under 1000 nM each time. For `O=S(=O)(NCCCc1c[nH]c2ccc(Cl)cc12)c1ccc(OCCCN2CCCNCC2)cc1` [Example 102, 4-(3-(1,4-diazepan-1-yl)propoxy)-N-(3-(5-chloro-1H-indol-3-yl)propyl)benzenesulfonamide], the IC50 on Pin1 (setting [2]) and on Pin1 (setting [3]) was under 1000 nM each time. Take `CC1CN(CCCOc2ccc(S(=O)(=O)NCCCc3c[nH]c4ccc(Cl)cc34)cc2)CCN1` (centres unmarked) [Example 107, N-(3-(5-chloro-1H-indole-3-yl)propyl)-4-(3-(3-methylpiperazine-1-yl)propoxy)benzenesulfonamide]: the IC50 on Pin1 (setting [2]) and on Pin1 (setting [3]) was under 1000 nM in each case. `O=S(=O)(NCCCc1c[nH]c2ccc(Cl)cc12)c1ccc(NCCCN2CCNCC2)cc1` [Example 113, N-(3-(5-chloro-1H-indole-3-yl)propyl)-4-((3-(piperazine-1-yl)propyl)amino)benzenesulfonamide]: the IC50 in test [1] was 1000 to 10000 nM; on Pin1 (setting [2]) it was under 1000 nM; on Pin1 (setting [3]), under 1000 nM. As for `O=S(=O)(NCCCc1c[nH]c2ccc(Cl)cc12)c1ccc(NCCCN2CCCCC2)cc1` [Example 114, N-(3-(5-chloro-1H-indol-3-yl)propyl)-4-((3-(piperidin-1-yl)propyl)amino)benzenesulfonamide], the results for the IC50 (in test [1]; on Pin1 (setting [2]); on Pin1 (setting [3])) were 1000 to 10000 nM, under 1000 nM and under 1000 nM, respectively. Regarding `CN1CCN(CC2(COc3ccc(S(=O)(=O)NCCCc4c[nH]c5ccc(Cl)cc45)cc3)CC2)CC1` [Example 116, N-(3-(5-chloro-1H-indole-3-yl)propyl)-4-((1-((4-methylpiperazine-1-yl)methyl)cyclopropyl)methoxy)benzenesulfonamide], the IC50 on Pin1 (setting [2]) and on Pin1 (setting [3]) was under 1000 nM in each case. For `O=S(=O)(NCCCc1c[nH]c2ccc(Cl)cc12)c1ccc(Oc2cccc(Br)c2)cc1` [Example 119, 4-(3-bromophenoxy)-N-(3-(5-chloro-1H-indol-3-yl)propyl)benzenesulfonamide], the IC50 at Pin1 (setting [3]) is 1000 to 10000 nM.

Regarding `O=S(=O)(NCCCc1c[nH]c2ccc(Cl)cc12)c1ccc(Oc2cccc(N3CCCCC3)c2)cc1` [Example 120, N-(3-(5-chloro-1H-indol-3-yl)propyl)-4-(3-(piperidin-1-yl)phenoxy)benzenesulfonamide], the IC50 at Pin1 (setting [3]) is 1000 to 10000 nM. The same measure, in the same setting: to `CN1CCCN(c2cccc(Oc3ccc(S(=O)(=O)NCCCc4c[nH]c5ccc(Cl)cc45)cc3)c2)CC1` [Example 122, N-(3-(5-chloro-1H-indol-3-yl)propyl)-4-(3-(4-methyl-1,4-diazepan-1-yl)phenoxy)benzenesulfonamide] belongs 1000 to 10000 nM; to `O=S(=O)(NCCCc1c[nH]c2ccc(Cl)cc12)c1ccc(Nc2cccc(N3CCOCC3)c2)cc1` [Example 126, N-(3-(5-chloro-1H-indol-3-yl)propyl)-4-((3-morpholinophenyl)amino)benzenesulfonamide], 1000 to 10000 nM. Turning to `O=S(=O)(NCCCc1c[nH]c2ccc(Cl)cc12)c1ccc(Oc2cccc(N3CCOCC3)c2)cc1` [Example 128, N-(3-(5-chloro-1H-indol-3-yl)propyl)-4-(3-morpholinophenoxy)benzenesulfonamide], the IC50 on Pin1 (setting [3]) is 1000 to 10000 nM. The same measure, in the same setting: to `O=S(=O)(NCCCc1c[nH]c2ccc(Cl)cc12)c1ccc(Oc2cccc(N3CCCNCC3)c2)cc1` [Example 129, 4-(3-(1,4-diazepan-1-yl)phenoxy)-N-(3-(5-chloro-1H-indol-3-yl)propyl)benzenesulfonamide] belongs 1000 to 10000 nM; to `CN1CCN(c2cccc(Nc3ccc(S(=O)(=O)NCCCc4c[nH]c5ccc(Cl)cc45)cc3)n2)CC1` [Example 131, N-(3-(5-chloro-1H-indol-3-yl)propyl)-4-((6-(4-methylpiperazin-1-yl)pyridin-2-yl)amino)benzenesulfonamide], 1000 to 10000 nM; to `O=S(=O)(NCCCc1c[nH]c2ccc(Cl)cc12)c1ccc(Nc2cccc(N3CCNCC3)n2)cc1` [Example 132, N-(3-(5-chloro-1H-indol-3-yl)propyl)-4-((6-(piperazin-1-yl)pyridin-2-yl)amino)benzenesulfonamide], 1000 to 10000 nM. With `O=S(=O)(NCCCc1c[nH]c2ccc(Cl)cc12)c1ccc(Oc2cccc(N3CCCC3)c2)cc1` [Example 135, N-(3-(5-chloro-1H-indol-3-yl)propyl)-4-(3-(pyrrolidin-1-yl)phenoxy)benzenesulfonamide], the IC50 on Pin1 (setting [3]) was 1000 to 10000 nM.

With `O=S(=O)(NCCCc1c[nH]c2ccc(Cl)cc12)c1ccc(Oc2cccc(N3CCC(O)CC3)c2)cc1` [Example 136, N-(3-(5-chloro-1H-indol-3-yl)propyl)-4-(3-(4-hydroxypiperidin-1-yl)phenoxy)benzenesulfonamide], the IC50 at Pin1 (setting [3]) was 1000 to 10000 nM.

On to `O=S(=O)(NCCCc1c[nH]c2ccc(Cl)cc12)c1ccc(Nc2cccc(N3CCC(O)CC3)c2)cc1` [Example 139, N-(3-(5-chloro-1H-indol-3-yl)propyl)-4-((3-(4-hydroxypiperidin-1-yl)phenyl)amino)benzenesulfonamide], for which the IC50 on Pin1 (setting [3]) is 1000 to 10000 nM. Take `CN1CCN(c2ccc(Nc3ccc(S(=O)(=O)NCCCc4c[nH]c5ccc(Cl)cc45)cc3)cc2)CC1` [Example 142, N-(3-(5-chloro-1H-indol-3-yl)propyl)-4-((4-(4-methylpiperazin-1-yl)phenyl)amino)benzenesulfonamide]: the IC50 at Pin1 (setting [3]) is 1000 to 10000 nM. The same measure, in the same setting: to `O=C(NCCCc1c[nH]c2ccc(Cl)cc12)c1ccc(OCCCN2CCNCC2)cc1` [Example 144, N-(3-(5-chloro-1H-indol-3-yl)propyl)-4-(3-(piperazin-1-yl)propoxy)benzamide] belongs 1000 to 10000 nM. `O=S(=O)(NCCCc1c[nH]c2ccc(-c3ccccc3)cc12)c1ccc(OCCCN2CCNCC2)cc1` [Example 155, N-(3-(5-phenyl-1H-indol-3-yl)propyl)-4-(3-(piperazin-1-yl)propoxy)benzenesulfonamide]: the IC50 on Pin1 (setting [3]) lay in the range of 1000 to 10000 nM. Take `CN1CCN(CCCOc2ccc(S(=O)(=O)NCCCc3c[nH]c4ccc(-c5ccccc5)cc34)cc2)CC1` [Example 156, 4-(3-(4-methylpiperazin-1-yl)propoxy)-N-(3-(5-phenyl-1H-indol-3-yl)propyl)benzenesulfonamide]: on Pin1 (setting [3]), the IC50 fell in the range of 1000 to 10000 nM. On the same count and under the same terms, to `CN1CCN(CCCOc2ccc(S(=O)(=O)NCCCc3c[nH]c4ccc(Cl)cc34)cc2)CC1=O` [Example 162, N-(3-(5-chloro-1H-indol-3-yl)propyl)-4-(3-(4-methyl-3-oxopiperazin-1-yl)propoxy)benzenesulfonamide] belongs 1000 to 10000 nM; to `O=C1CN(CCCOc2ccc(S(=O)(=O)NCCCc3c[nH]c4ccc(Cl)cc34)cc2)CCN1` [Example 163, N-(3-(5-chloro-1H-indol-3-yl)propyl)-4-(3-(3-oxopiperazin-1-yl)propoxy)benzenesulfonamide], 1000 to 10000 nM. On the same count and under the same terms, to `CN1CCN(CCCOc2ccc(S(=O)(=O)NC3CCCC(c4c[nH]c5ccc(Cl)cc45)C3)cc2)CC1` (centres unmarked) [Example 179, N-(3-(5-chloro-1H-indol-3-yl)cyclohexyl)-4-(3-(4-methylpiperazin-1-yl)propoxy)benzenesulfonamide] belongs 1000 to 10000 nM. `O=S(=O)(NC1CCCC(c2c[nH]c3ccc(Cl)cc23)C1)c1ccc(OCCCN2CCNCC2)cc1` (centres unmarked) [Example 180, N-(3-(5-chloro-1H-indol-3-yl)cyclohexyl)-4-(3-(piperazin-1-yl)propoxy)benzenesulfonamide]: the IC50 on Pin1 (setting [3]) lay within 1000 to 10000 nM.

On to `CN1CCN(CCCOc2ccc(S(=O)(=O)Nc3ccccc3C(C)(C)c3c[nH]c4ccc(Cl)cc34)cc2)CC1` [Example 181, N-(2-(2-(5-chloro-1H-indole-3-yl)propane-2-yl)phenyl)-4-(3-(4-methylpiperazine-1-yl)propoxy)benzenesulfonamide], for which the IC50 at Pin1 (setting [3]) lay in the range of 1000 to 10000 nM. Still for that read-out and setting: to `CC(C)(c1ccccc1NS(=O)(=O)c1ccc(OCCCN2CCNCC2)cc1)c1c[nH]c2ccc(Cl)cc12` [Example 182, N-(2-(2-(5-chloro-1H-indol-3-yl)propan-2-yl)phenyl)-4-(3-(piperazin-1-yl)propoxy)benzenesulfonamide] belongs 1000 to 10000 nM.
